pEC50: −log10 of the molar value. Read-outs that look alike come from different tables or passages of the source.
Assays:
[1] = system: Leishmania donovani axenic amastigote parasites; assay: Leishmania donovani axenic amastigote proliferation assay; assay type: cell-based
Protocol: Leishmania Donovani Axenic Amastigote Proliferation Assay
Leishmania donovani axenic amastigote parasites are grown at 37° C., 5% CO2 in media made of RPMI 1640, 4 mM L-glutamine, 20% heat inactivated FBS, 100 units/ml of penicillin and 100 μg/ml of streptomycin, 23 μM Folic Acid, 100 μM Adenosine, 22 mM D-glucose, 25 mM MES. The pH of media is adjusted to 5.5 at 37° C. using HCl. 20 μL of media is first dispensed into 384 well plates and 100 nL of the compounds of invention in DMSO are added to the plate wells. At the same time control compounds and DMSO are added to plates to serve as the positive and negative controls, respectively. 40 μL of parasite culture (9600 parasites) are then added to the plate wells. The plates are then placed into incubators. After 2 day incubation, 20 μL of Cell TiterGlo (Promega) is added to the plate wells. The luminescence signal of each well is measured using the Envision reader (Perkin Elmer). The percentage inhibition of 50%, EC50, is calculated for each of the compounds.

[2] = system: L. donovani HU3 strain in mouse peritoneal macrophages; assay: Assay for proliferation of Leishmania parasites in mouse peritoneal macrophages; assay type: cell-based, Leishmania donovani; conditions: Leishmania donovani, Peritoneal macrophage, read-out: L. donavani Macrophage EC50
From the text: Assay for Proliferation of Leishmania Parasites
The activity of a compound according to the present invention for inhibition of parasitemai can be assessed by the parasite proliferation assay. The assay measures the increase in the parasite number in the assayed plate well using a DNA intercalating dye, SYBR Green I® dye (INVITROGEN) to stain Leishmania cell nuclei. It is understood that the assays illustrate the invention without in any way limiting the scope of the invention.
L. donovani HU3 strain is propagated by infecting BALB/c mice through tail vein injection with 10^7 Leishmania parasites. Infected mice are allowed to develop infection during 9-11 weeks post-infection. During this time, the parasites accumulate in the infected mouse spleens to large numbers, and the infected mice serve as the source of parasites for the in vitro measurement of compound efficacies. To assay a compound for anti-leishmanial activity, peritoneal macrophages isolated from non-infected BALB/c mice are seeded into 384-well plates at density 2×10^4 macrophages per well in […] of medium (RPMI 1640, 10% […], 10 mM HEPES, 1 mM sodium pyruvate, 1% Pen/Strep). Subsequently, the seeded plates are placed into an incubator set to maintain 37° C. temperature and atmosphere with 5% CO2. The next day, Leishmania parasites are isolated from the spleens of mice infected for 9-11 weeks and 4×10^5 isolated parasites in […] of the above media are added to each plate well. Plates are then returned into incubators and infection is allowed to proceed for 24 hours. After the infection of macrophages is completed, […] of compounds of the invention in the above medium, which also contains 5% DMSO, are added to plate wells containing infected macrophages. At the same time control compounds (miltefosine and amphotericin B) and DMSO are added to plates to serve as the positive and negative controls, respectively. After the compound addition, the plates are returned into incubator and cells infected with parasites are cultured for 5 days. At the end of cultivation, […] of 8% paraformaldehyde is added to plate wells and incubated for 15 min at room temperature. Following the incubation, the paraformaldehyde from plate wells is aspirated, and […] of PBS containing 0.2% Triton X-100 is added to wells. After 15 min incubation, the solution is aspirated from wells again, and replaced with SybrGreen Dye solution in PBS (1:125,000 dilution). Infected cells are imaged with Evotec Opera high-content microscope, and the number of parasites in well is determined by counting parasite nuclei visualized by staining with SybrGreen dye. The percentage inhibition of 50%, EC50, is calculated for each compound.
The inhibitory efficacy of the compounds of the invention in delaying the proliferation of L. donovani in mouse peritoneal macrophages is provided in Table I, infra.

[3] = axenic amastigotes in vitro, read-out: L. donovani amastigotes EC50

Compound	pEC50 [1, 3]	pEC50 [2]	pEC50 ([1]; 48 h, L. donovani axenic amastigotes, 2 day incubation, Cell TiterGlo luminescence, read-out: EC50)
O=C(Nc1ccc(Cl)c(-c2nc3ncc(Cl)cc3[nH]2)c1)c1ccco1 [Compound 2]	5.86	5.40	–
Cc1ccnc2nc(-c3cc(NC(=O)c4ccco4)ccc3Cl)[nH]c12 [Compound 3]	< 4.60	< 4.30	–
O=C(Nc1ccc(Cl)c(-c2nc3ncncc3[nH]2)c1)c1ccco1 [Compound 4]	5.38	4.59	–
Cc1cc2[nH]c(-c3cc(NC(=O)c4ccco4)ccc3Cl)nc2nc1C [Compound 5]	< 4.60	4.31	–
CC(=O)Nc1ccccc1-c1cnc2nc(-c3cc(NC(=O)c4ccco4)ccc3Cl)[nH]c2c1 [Compound 8]	6.12	5.76	–
COc1ncc(-c2cnc3nc(-c4cc(NC(=O)c5ccco5)ccc4Cl)[nH]c3c2)cn1 [Compound 9]	6.35	5.92	–
O=C(Nc1ccc(Cl)c(-c2nc3ncc(-c4ccncc4)cc3[nH]2)c1)c1ccco1 [Compound 10]	6.05	5.95	–
Nc1ccc(-c2cnc3nc(-c4cc(NC(=O)c5ccco5)ccc4Cl)[nH]c3c2)cc1 [Compound 12]	6.59	6.40	–
CC(C)CC(=O)Nc1ccc(-c2cnc3nc(-c4cc(NC(=O)c5ccco5)ccc4Cl)[nH]c3c2)cc1 [Compound 13, N-(4-chloro-3-{6-[4-(3-methylbutanamido)phenyl]-1H-imidazo[4,5-b]pyridin-2-yl}phenyl)furan-2-carboxamide]	7.08	6.94	~7.10
O=C(Nc1ccc(Cl)c(-c2nc3ncc(-c4cnn(CCN5CCOCC5)c4)cc3[nH]2)c1)c1ccco1 [Compound 14]	5.43	5.50	–
CN(C)Cc1ccc(-c2cnc3nc(-c4cc(NC(=O)c5ccco5)ccc4Cl)[nH]c3c2)cc1 [Compound 15]	5.21	6.14	–
O=C(Nc1ccc(Cl)c(-c2nc3ncc(-c4ccc(CN5CCOCC5)cc4)cc3[nH]2)c1)c1ccco1 [Compound 16]	5.68	5.79	–
Nc1ncc(-c2cnc3nc(-c4cc(NC(=O)c5ccco5)ccc4Cl)[nH]c3c2)cn1 [Compound 17]	6.32	5.80	–
CC(=O)Nc1ccc(-c2cnc3nc(-c4cc(NC(=O)c5ccco5)ccc4Cl)[nH]c3c2)cc1 [Compound 18]	6.52	5.83	–
CN1CCN(c2ccc(-c3cnc4nc(-c5cc(NC(=O)c6ccco6)ccc5Cl)[nH]c4c3)cc2)CC1 [Compound 22]	4.72	5.34	–
Nc1ccccc1-c1cnc2nc(-c3cc(NC(=O)c4ccco4)ccc3Cl)[nH]c2c1 [Compound 23]	6.49	6.43	–
Nc1ccc(-c2cnc3nc(-c4cc(NC(=O)c5ccco5)ccc4Cl)[nH]c3c2)cn1 [Compound 24]	6.78	5.54	–
O=C(Nc1ccc(Cl)c(-c2nc3ncc(-c4ccc(OC(F)(F)F)cc4)cc3[nH]2)c1)c1ccco1 [Compound 25]	5.25	5.02	–
O=C(Nc1ccc(Cl)c(-c2nc3ncc(-c4ccc(OCC5CCOCC5)cc4)cc3[nH]2)c1)c1ccco1 [Compound 26]	6.17	5.66	–
O=C(Nc1ccc(Cl)c(-c2nc3ncc(-c4ccc5c(c4)OCO5)cc3[nH]2)c1)c1ccco1 [Compound 27]	5.58	4.61	–
CC(C)OC(=O)Nc1ccc(-c2cnc3nc(-c4cc(NC(=O)c5ccco5)ccc4Cl)[nH]c3c2)cc1 [Compound 31]	6.75	6.35	–
NC(=O)Nc1ccc(-c2cnc3nc(-c4cc(NC(=O)c5ccco5)ccc4Cl)[nH]c3c2)cc1 [Compound 32]	< 4.60	4.82	–

Compound	pEC50 [1, 3]	pEC50 [2]	pEC50 ([1]; 48 h, L. donovani axenic amastigotes, 2 day incubation, Cell TiterGlo luminescence, read-out: EC50)
COC(=O)c1ccc(-c2cnc3nc(-c4cc(NC(=O)c5ccco5)ccc4Cl)[nH]c3c2)cc1 [Compound 35]	6.63	5.68	–
CC(C)OC(=O)Nc1ccccc1-c1cnc2nc(-c3cc(NC(=O)c4ccco4)ccc3Cl)[nH]c2c1 [Compound 37]	6.34	6.26	–
C[C@@H](CO)NCc1cnc2nc(-c3cc(NC(=O)c4ccco4)ccc3Cl)[nH]c2c1 [Compound 38]	< 4.60	< 4.30	–
Cc1cc(-c2cnc3nc(-c4cc(NC(=O)c5ccco5)ccc4Cl)[nH]c3c2)cc(C)n1 [Compound 39]	6.24	5.02	–
O=C(Nc1ccc(Cl)c(-c2nc3ncc(-c4ccc(OCCn5cccn5)cc4)cc3[nH]2)c1)c1ccco1 [Compound 40]	6.21	6.01	–
O=C(Nc1cccc(-c2nc3ncc(-c4ccc(OC(F)(F)F)cc4)cc3[nH]2)c1)c1ccco1 [Compound 41]	5.23	5.66	–
O=C1NC(=O)C(c2ccc(-c3cnc4nc(-c5cc(NC(=O)c6ccco6)ccc5Cl)[nH]c4c3)cc2)N1 (centres unmarked) [Compound 42]	5.86	5.40	–
Cc1cc(COc2ccc(-c3cnc4nc(-c5cc(NC(=O)c6ccco6)ccc5Cl)[nH]c4c3)cc2)no1 [Compound 44]	6.55	6.09	–
O=C(Nc1ccc(-c2cnc3nc(-c4cc(NC(=O)c5ccco5)ccc4Cl)[nH]c3c2)cc1)NC1CC1 [Compound 45]	5.83	5.47	–
CC(C)C(=O)Nc1ccc(-c2cnc3nc(-c4cc(NC(=O)c5ccco5)ccc4Cl)[nH]c3c2)cc1 [Compound 53]	6.95	6.81	–
CNC(=O)c1ccc(-c2cnc3nc(-c4cc(NC(=O)c5ccco5)ccc4Cl)[nH]c3c2)cn1 [Compound 54]	6.65	6.57	–
O=C(Nc1ccc(Cl)c(-c2nc3ncc(-c4ccc(OCCN5CCCC5)cc4)cc3[nH]2)c1)c1ccco1 [Compound 55]	5.69	5.17	–
O=C(Nc1ccc(Cl)c(-c2nc3ncc(-c4ccc(-n5cccn5)cc4)cc3[nH]2)c1)c1ccco1 [Compound 56]	5.49	4.80	–
CNC(=O)Nc1ccc(-c2cnc3nc(-c4cc(NC(=O)c5ccco5)ccc4Cl)[nH]c3c2)cc1 [Compound 57]	5.74	< 4.30	–
COCCOc1ccc(-c2cnc3nc(-c4cc(NC(=O)c5ccco5)ccc4Cl)[nH]c3c2)cc1 [Compound 60]	6.10	5.46	–
CNC(=O)c1ccc(-c2cnc3nc(-c4cc(NC(=O)c5ccco5)ccc4Cl)[nH]c3c2)cc1 [Compound 64]	6.17	< 4.54	–
CN(C)c1ccc(-c2cnc3nc(-c4cc(NC(=O)c5ccco5)ccc4Cl)[nH]c3c2)cn1 [Compound 65]	6.71	5.80	–
NS(=O)(=O)c1ccc(-c2cnc3nc(-c4cc(NC(=O)c5ccco5)ccc4Cl)[nH]c3c2)cc1 [Compound 66]	5.34	< 4.41	–
CN(C)c1ccc(-c2cnc3nc(-c4cc(NC(=O)c5ccco5)ccc4Cl)[nH]c3c2)cc1 [Compound 67]	5.67	5.60	–
O=C(Nc1ccc(Cl)c(-c2nc3ncc(-c4ccc(N5CCCC5)cc4)cc3[nH]2)c1)c1ccco1 [Compound 68]	5.55	5.31	–
O=C(Nc1ccc(Cl)c(-c2nc3ncc(-c4ccc(OCCn5ccnc5)cc4)cc3[nH]2)c1)c1ccco1 [Compound 71]	5.40	5.73	–
Cc1c[nH]nc1-c1cnc2nc(-c3cc(NC(=O)c4ccco4)ccc3Cl)[nH]c2c1 [Compound 73]	6.09	5.09	–

Reference: patent US9233961B2, “Compounds and compositions for the treatment of parasitic diseases” (Novartis AG, priority 2013, dated 2016)
